For experiment [1], the target named is NAMPT (Homo sapiens (Human), UniProt P43490). Briefly: Assay 1: Biochemical Inhibition Assay (NAMPT enzymatic reaction, NMN quantified by mass spectrometry).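 Also: recombinant His-tagged human NAMPT preincubated with compound 15 min, then reacted 30 min at rt with 1 µM NAM, 100 µM PRPP, 2.5 mM ATP, NMN product read by RapidFire MS, normalized to L-Cystathionine internal standard.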 As to conditions: read-out: Biochemical (IC50).
The subject of experiment [2] is A2780 cells. Briefly: Assay 2: In-Vitro Cell Proliferation Assay (A2780 cells, SRB readout, 72 hours).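 Also: viable cells counted via sulforhodamine B staining, absorbance at 570 nm, after 72 h exposure at 37 °C, DMSO 0.1% as control, media-only background subtracted.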 The format is cell-based. As to conditions: A2780 cells, 72 hours, SRB, read-out: Cell Proliferation (IC50).

pIC50: −log10 of the molar value. Where two headings read alike, the source gives them in different places.

NAMPT, sequence (P43490 whole entry): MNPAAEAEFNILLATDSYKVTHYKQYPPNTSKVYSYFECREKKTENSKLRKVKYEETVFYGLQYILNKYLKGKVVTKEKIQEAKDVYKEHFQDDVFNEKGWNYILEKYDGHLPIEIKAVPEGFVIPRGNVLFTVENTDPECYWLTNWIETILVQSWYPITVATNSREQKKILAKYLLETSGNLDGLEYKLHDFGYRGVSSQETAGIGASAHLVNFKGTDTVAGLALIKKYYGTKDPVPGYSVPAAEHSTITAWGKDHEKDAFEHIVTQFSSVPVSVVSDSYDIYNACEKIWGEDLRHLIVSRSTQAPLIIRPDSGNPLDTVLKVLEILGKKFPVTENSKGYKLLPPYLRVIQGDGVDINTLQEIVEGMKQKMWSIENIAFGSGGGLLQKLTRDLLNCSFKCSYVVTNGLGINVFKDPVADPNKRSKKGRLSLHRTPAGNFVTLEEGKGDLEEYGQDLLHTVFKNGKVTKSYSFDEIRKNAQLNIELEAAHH

Consider `O=C(NCc1ccc(S(=O)(=O)N2CCC2)cc1)c1ccc2nccn2c1` [Example 240, N-[[4-(azetidin-1-ylsulfonyl)phenyl]methyl] imidazo[1,2-a]pyridine-6-carboxamide], for which the pIC50 was 7.39 in experiment [1] and 6.85 in experiment [2] (Homo sapiens, A2780, 72 h).
In the case of `CC(C)(C)OC(=O)N1CCC2(CCN(S(=O)(=O)c3ccc(CNC(=O)c4ccc5nccn5c4)cc3)C2)C1` (stereo not drawn) [Example 241, tert-butyl 2-[4-[(imidazo[1,2-a]pyridine-6-carbonylamino)methyl]phenyl] sulfonyl-2,7-diazaspiro[4.4]nonane-7-carboxylate], the pIC50 in experiment [1] was 7.84; in experiment [2] (Homo sapiens, A2780, 72 h) it was 8.38.
For `CC(C)(C)OC(=O)N1CCCCC12CCN(S(=O)(=O)c1ccc(CNC(=O)c3ccc4nccn4c3)cc1)C2` (stereo not drawn) [Example 243, tert-butyl 2-[4-[(imidazo[1,2-a]pyridine-6-carbonylamino)methyl]phenyl] sulfonyl-2,6-diazaspiro[4.5]decane-6-carboxylate], in that order: 7.83 and 7.36.
For `CN(C)C(=O)C1CN(S(=O)(=O)c2ccc(CNC(=O)c3ccc4nccn4c3)cc2)C1` [Example 244, N-[[4-[3-(dimethylcarbamoyl)azetidin-1-yl]sulfonylphenyl]methyl] imidazo[1,2-a]pyridine-6-carboxamide], in that order: 7.85 and 7.84.
For `O=C(NCc1ccc(S(=O)(=O)N2CC(O)C2)cc1)c1ccc2nccn2c1` [Example 245, N-[[4-(3-hydroxyazetidin-1-yl)sulfonylphenyl]methyl] imidazo[1,2-a]pyridine-6-carboxamide], the pIC50 in experiment [1] was 7.28; in experiment [2] (Homo sapiens, A2780, 72 h), 6.56.
For `CN1CCN(C(=O)C2CN(S(=O)(=O)c3ccc(CNC(=O)c4ccc5nccn5c4)cc3)C2)CC1` [Example 246, N-[[4-[3-(4-methylpiperazine-1-carbonyl)azetidin-1-yl]sulfonylphenyl]methyl] imidazo[1,2-a]pyridine-6-carboxamide] the same measures were 8.15 and 7.56.
Regarding `O=C(NCc1ccc(S(=O)(=O)C2CCN(C3COC3)CC2)cc1)c1ccc2nccn2c1` [Example 248, N-[[4-[[1-(oxetan-3-yl)-4-piperidyl]sulfonyl]phenyl]methyl]imidazo[1,2-a] pyridine-6-carboxamide], the figures for the pIC50 in experiment [1] and in experiment [2] were 7.71 and 8.25, respectively.
As for `O=C(NCc1ccc(S(=O)(=O)C2CCN(C3COC3)CC2)cc1)c1cnc2nccn2c1` [Example 251, N-[[4-[[1-(oxetan-3-yl)-4-piperidyl]sulfonyl]phenyl]methyl]imidazo[1,2-a] pyrimidine-6-carboxamide], the pIC50 in experiment [1] is 8.38; in experiment [2] it was 6.92.
For `O=C(NCc1ccc(S(=O)(=O)C2CCN(C3COC3)CC2)cc1)c1cc2ccncc2s1` [Example 252, N-[[4-[[1-(oxetan-3-yl)-4-piperidyl]sulfonyl]phenyl]methyl]thieno[2,3-c]pyridine-2-carboxamide] the same measures were 8.37 and 8.83.
Regarding `O=C(NCc1ccc(S(=O)(=O)N2CC3(CCCNC3)C2)cc1)c1ccc2nccn2c1` [Example 253, N-[[4-(2,8-diazaspiro[3,5]nonan-2-ylsulfonyl)phenyl]methyl] imidazo[1,2-a]pyridine-6-carboxamide], the pIC50 in experiment [1] is 7.56; in experiment [2] (Homo sapiens, A2780, 72 h), 7.50.
With `O=C(NCc1ccc(S(=O)(=O)N2CCC3(CCCN3)C2)cc1)c1ccc2nccn2c1` (stereo not drawn) [Example 255, N-[[4-(1,7-diazaspiro[4.4]nonan-7-sulfonyl)phenyl]methyl] imidazo[1,2-a]pyridine-6-carboxamide], the pIC50 in experiment [1] was 7.24; in experiment [2] (Homo sapiens, A2780, 72 h) it was 7.44.
For `O=C(NCc1ccc(S(=O)(=O)N2CCC3(CCNCC3)C2)cc1)c1ccc2nccn2c1` [Example 256, N-[[4-(2,8-diazaspiro[4.5]decan-2-ylsulfonyl)phenyl]methyl] imidazo[1,2-a]pyridine-6-carboxamide] the same measures were 7.27 and 7.17.
Turning to `O=C(NCc1ccc(S(=O)(=O)N2CCC3(CCCN3)C2)cc1)c1ccc2nccn2c1` (stereo not drawn) [Example 257, N-[[4-(1,7-diazaspiro[4.4]nonan-7-ylsulfonyl)phenyl]methyl] imidazo[1,2-a]pyridine-6-carboxamide], the pIC50 is 7.33 in experiment [1] and 7.58 in experiment [2].
`CC(=O)N1CC2(C1)CN(S(=O)(=O)c1ccc(CNC(=O)c3ccc4nccn4c3)cc1)C2` [Example 259, N-[[4-[(6-acetyl-2,6-diazaspiro[3.3]heptan-2-yl)sulfonyl]phenyl]methyl] imidazo[1,2-a]pyridine-6-carboxamide]: the pIC50 in experiment [1] was 7.42; in experiment [2] (Homo sapiens, A2780, 72 h), 7.15.
As to `O=C(NCc1ccc(S(=O)(=O)N2CCC3(CCNC3)C2)cc1)c1ccc2nccn2c1` (stereo not drawn) [Example 262, N-[[4-(2,7-diazaspiro[4.4]nonan-2-ylsulfonyl)phenyl]methyl] imidazo[1,2-a]pyridine-6-carboxamide], the pIC50 was 7.19 in experiment [1] and 6.97 in experiment [2] (Homo sapiens, A2780, 72 h).
For `O=C(NCc1ccc(S(=O)(=O)N2CC3(CCOCC3)C2)cc1)c1cc2ccncc2o1` [Example 263, N-[[4-(7-oxa-2-azaspiro[3.5]nonan-2-ylsulfonyl)phenyl]methyl]furo [2,3-c]pyridine-2-carboxamide], in that order: 7.74 and 7.63.
For `O=C(NCc1ccc(S(=O)(=O)C2CCCOC2)cc1)c1cc2cnccc2[nH]1` (stereo not drawn) [Example 266, N-[(4-tetrahydropyran-3-ylsulfonylphenyl)methyl]-1H-pyrrolo[3,2-c]pyridine-2-carboxamide] the same measures were 7.48 and 7.73.
As for `O=C(NCc1ccc(S(=O)(=O)C2CCCOC2)cc1)c1cnc2[nH]ncc2c1` (stereo not drawn) [Example 267, N-[(4-tetrahydropyran-3-ylsulfonylphenyl)methyl]-1H-pyrazolo[3,4-b]pyridine-5-carboxamide], the pIC50 in experiment [1] was 6.66; in experiment [2] (Homo sapiens, A2780, 72 h) it was 6.75.
For `O=C(NCc1ccc(S(=O)(=O)N2CC3(CCOCC3)C2)cc1)c1cnc2[nH]ncc2c1` [Example 269, N-[[4-(7-oxa-2-azaspiro[3.5]nonan-2-ylsulfonyl)phenyl]methyl]-1H-pyrazolo[3,4-b]pyridine-5-carboxamide], in that order: 6.95 and 7.35.
For `O=C(NCc1ccc(S(=O)(=O)N2CC3(C2)CC(F)(F)C3)cc1)c1ccc2nccn2c1` [Example 270, N-[[4-[(6,6-difluoro-2-azaspiro[3.3]heptan-2-yl)sulfonyl]phenyl]methyl] imidazo[1,2-a]pyridine-6-carboxamide] the same measures were 8.06 and 8.22.
For `CN1CCC2(CC1)CN(S(=O)(=O)c1ccc(CNC(=O)c3ccc4nccn4c3)cc1)C2` [Example 271, N-[[4-[(7-methyl-2,7-diazaspiro[3.5]nonan-2-yl)sulfonyl]phenyl]methyl] imidazo[1,2-a]pyridine-6-carboxamide], the pIC50 in experiment [1] is 7.56; in experiment [2] (Homo sapiens, A2780, 72 h) it was 7.92.
As for `CN1CCOC2(C1)CN(S(=O)(=O)c1ccc(CNC(=O)c3ccc4nccn4c3)cc1)C2` [Example 272, N-[[4-[(8-methyl-5-oxa-2,8-diazaspiro[3.5]nonan-2-yl)sulfonyl]phenyl]methyl] imidazo[1,2-a]pyridine-6-carboxamide], the pIC50 in experiment [1] was 7.47; in experiment [2] (Homo sapiens, A2780, 72 h), 8.00.
For `CN1CCCC12CN(S(=O)(=O)c1ccc(CNC(=O)c3ccc4nccn4c3)cc1)C2` [Example 273, N-[[4-[(5-methyl-2,5-diazaspiro[3.4]octan-2-yl)sulfonyl)phenyl]methyl] imidazo[1,2-a]pyridine-6-carboxamide] the same measures were 7.60 and 7.98.
For `O=C(NCc1ccc(S(=O)(=O)N2CC3(CCCO3)C2)cc1)c1ccc2nccn2c1` [Example 274, N-[(4-(5-oxa-2-azaspiro[3.4]octan-2-ylsulfonyl)phenyl]methyl] imidazo[1,2-a]pyridine-6-carboxamide], in that order: 7.72 and 8.23.
For `O=C(NCc1ccc(S(=O)(=O)C2CCCOC2)cc1)c1cc2ccncc2o1` (stereo not drawn) [Example 275, N-[(4-tetrahydropyran-3-ylsulfonylphenyl)methyl]furo [2,3-c]pyridine-2-carboxamide], in that order: 7.52 and 7.30.
`O=C(NCc1ccc(S(=O)(=O)C2CCCOC2)cc1)c1ccc2nccn2c1` (stereo not drawn) [Example 276, N-[(4-tetrahydropyran-3-ylsulfonylphenyl)methyl] imidazo[1,2-a]pyridine-6-carboxamide]: the pIC50 in experiment [1] was 7.48; in experiment [2] (Homo sapiens, A2780, 72 h), 7.70.
Regarding `Nc1ncc2c(n1)CN(C(=O)NCc1ccc(S(=O)(=O)C3CCOCC3)cc1)C2` [Example 277, 2-amino-N-[(4-tetrahydropyran-4-ylsulfonylphenyl)methyl]-5,7-dihydropyrrolo[3,4-d]pyrimidine-6-carboxamide], the pIC50 is 5.70 in experiment [1] and 5.70 in experiment [2] (Homo sapiens, A2780, 72 h).
For the molecule `O=C(NCc1ccc(S(=O)(=O)N2CC(F)(F)C2)cc1)c1cnc2[nH]ncc2c1` [Example 281, N-[[4-(3,3-difluoroazetidin-1-yl)sulfonylphenyl]methyl]-1H-pyrazolo[3,4-b]pyridine-5-carboxamide], the pIC50 is 7.02 in experiment [1] and 6.42 in experiment [2] (Homo sapiens, A2780, 72 h).
For `O=C(NCc1ccc(S(=O)(=O)N2CCC3(CCNC3=O)C2)cc1)c1cnc2[nH]ncc2c1` (stereo not drawn) [Example 282, N-[[4-[(1-oxo-2,7-diazaspiro[4.4]nonan-7-yl)sulfonyl)phenyl]methyl]-1H-pyrazolo[3,4-b]pyridine-5-carboxamide] the same measures were 7.00 and 6.63.
For `CN1CCC2(C1)CN(S(=O)(=O)c1ccc(CNC(=O)c3cnc4[nH]ncc4c3)cc1)C2` [Example 283, N-[[4-[(7-methyl-2,7-diazaspiro[3.4]octan-2-yl)sulfonyl]phenyl]methyl]-1H-pyrazolo[3,4-b]pyridine-5-carboxamide] the same measures were 6.70 and 6.89.

For the origin of these results see patent publication US10696692B2, “Amido-benzyl sulfone and sulfoxide derivates” (Forma TM, LLC, priority 2012, dated 2020).
